This note sets out measurements from ChEMBL document CHEMBL1140382, “11C-labeling of n-[4-[4-(2,3-dichlorophenyl)piperazin-1-yl]butyl]arylcarboxamide derivatives and evaluation as potential radioligands for PET imaging of dopamine D3 receptors” (J Med Chem, 2005).

In experiment [1] the target is D(3) dopamine receptor (Rattus norvegicus) (UniProt P19020).
The target of experiment [2] is D(2) dopamine receptor (Rattus norvegicus, UniProt P61169). Nature of the experiment: Binding affinity towards rat dopamine D2 receptor using [11C] radiotracer.
D(2) dopamine receptor, sequence (P61169 whole entry): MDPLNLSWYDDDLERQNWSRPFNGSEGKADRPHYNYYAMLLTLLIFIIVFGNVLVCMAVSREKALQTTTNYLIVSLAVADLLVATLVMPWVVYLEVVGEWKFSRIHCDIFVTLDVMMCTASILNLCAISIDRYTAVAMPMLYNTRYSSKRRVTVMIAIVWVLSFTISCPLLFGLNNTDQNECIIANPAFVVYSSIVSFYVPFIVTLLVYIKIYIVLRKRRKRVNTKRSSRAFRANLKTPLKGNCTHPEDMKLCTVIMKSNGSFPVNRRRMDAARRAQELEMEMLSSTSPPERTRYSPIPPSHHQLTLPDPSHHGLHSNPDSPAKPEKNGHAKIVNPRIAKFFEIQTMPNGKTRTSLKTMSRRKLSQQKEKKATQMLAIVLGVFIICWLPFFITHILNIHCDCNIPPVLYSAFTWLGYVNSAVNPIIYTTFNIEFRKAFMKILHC
For experiment [3], the target named is T1, D(4) dopamine receptor (Rattus norvegicus, UniProt P30729).
T1 sequence (P30729 whole entry): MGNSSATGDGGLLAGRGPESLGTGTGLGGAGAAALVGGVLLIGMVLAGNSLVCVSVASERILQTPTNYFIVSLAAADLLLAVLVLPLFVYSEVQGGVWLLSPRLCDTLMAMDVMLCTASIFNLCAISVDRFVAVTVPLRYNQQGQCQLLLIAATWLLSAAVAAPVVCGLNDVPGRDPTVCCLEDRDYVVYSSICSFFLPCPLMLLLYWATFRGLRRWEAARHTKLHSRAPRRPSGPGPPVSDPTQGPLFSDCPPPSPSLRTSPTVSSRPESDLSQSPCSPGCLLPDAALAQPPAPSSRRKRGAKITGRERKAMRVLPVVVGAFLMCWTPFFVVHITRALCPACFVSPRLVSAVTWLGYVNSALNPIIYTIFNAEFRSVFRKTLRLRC
Nature of the experiment: Binding affinity for rat dopamine D4 receptor using [11C] radiotracer.

Experiment [4] deals with Sigma non-opioid intracellular receptor 1 (Rattus norvegicus, UniProt Q9R0C9). Nature of the experiment: Binding affinity for rat Opioid receptor sigma 1 using [11C] radiotracer.
Sigma non-opioid intracellular receptor 1, sequence (Q9R0C9 whole entry): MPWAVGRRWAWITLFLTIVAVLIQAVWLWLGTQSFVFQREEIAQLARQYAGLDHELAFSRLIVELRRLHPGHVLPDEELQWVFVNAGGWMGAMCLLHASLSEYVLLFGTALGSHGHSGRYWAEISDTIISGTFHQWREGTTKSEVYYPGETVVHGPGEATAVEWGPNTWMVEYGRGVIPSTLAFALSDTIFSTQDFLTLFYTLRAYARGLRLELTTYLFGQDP
Experiment [5] addresses D(3) dopamine receptor (Rattus norvegicus, UniProt P19020). In words: Binding affinity for rat dopamine D3 receptor using [11C]GR-218,231.

D(3) dopamine receptor (Rattus norvegicus), sequence (P19020 whole entry): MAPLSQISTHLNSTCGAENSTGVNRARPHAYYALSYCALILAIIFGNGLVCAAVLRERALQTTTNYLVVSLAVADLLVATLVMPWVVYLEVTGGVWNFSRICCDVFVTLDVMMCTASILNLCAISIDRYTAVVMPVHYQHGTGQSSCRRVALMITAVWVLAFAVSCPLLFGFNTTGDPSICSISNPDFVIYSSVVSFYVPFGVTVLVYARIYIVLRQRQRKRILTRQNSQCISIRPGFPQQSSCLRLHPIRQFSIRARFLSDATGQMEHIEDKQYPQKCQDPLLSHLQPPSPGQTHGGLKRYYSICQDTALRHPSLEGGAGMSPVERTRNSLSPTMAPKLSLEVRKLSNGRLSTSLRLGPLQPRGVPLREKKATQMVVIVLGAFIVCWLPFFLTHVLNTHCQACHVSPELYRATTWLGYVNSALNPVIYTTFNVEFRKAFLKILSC
D(3) dopamine receptor, sequence (P19020 whole entry): as above

As usually defined, the pKi is the negative decadic logarithm of the Ki, by convention in mol/L. Lower therefore signals a large Ki. `CCCN(CCC)C1CCc2cc(CS(=O)(=O)c3ccc(OC)cc3)ccc2C1` (stereo not drawn) returned a negative-log Ki (pKi) in experiment [1] of 9.

Usually Ki stands for a measure of affinity in units of concentration, obtained from inhibition or displacement. Higher therefore signals weaker binding. With `COc1cccc2cc(C(=O)NCCCCN3CCN(c4cccc(Cl)c4Cl)CC3)oc12`, the figures for the inhibitory constant (Ki) in experiment [2], in experiment [3] and in experiment [4] were 720 nM, 373 nM and 180 nM, respectively.

`COc1c(C(=O)NCCCCN2CCN(c3cccc(Cl)c3Cl)CC2)ccc2ccccc12`: the inhibitory constant (Ki) was 720 nM in experiment [2], 830 nM in experiment [3] and 342 nM in experiment [4].

`COc1cc(Br)cc(C(=O)NCCCCN2CCN(c3cccc(Cl)c3Cl)CC2)c1OC`: the Ki in experiment [5] worked out at 2 nM.
